In publication PMC6402191 (Clinical and Translational Science, 2017):

Biological target: T1, OAT1 (Homo sapiens, UniProt Q4U2R8)
T1 sequence (Q4U2R8 1-563): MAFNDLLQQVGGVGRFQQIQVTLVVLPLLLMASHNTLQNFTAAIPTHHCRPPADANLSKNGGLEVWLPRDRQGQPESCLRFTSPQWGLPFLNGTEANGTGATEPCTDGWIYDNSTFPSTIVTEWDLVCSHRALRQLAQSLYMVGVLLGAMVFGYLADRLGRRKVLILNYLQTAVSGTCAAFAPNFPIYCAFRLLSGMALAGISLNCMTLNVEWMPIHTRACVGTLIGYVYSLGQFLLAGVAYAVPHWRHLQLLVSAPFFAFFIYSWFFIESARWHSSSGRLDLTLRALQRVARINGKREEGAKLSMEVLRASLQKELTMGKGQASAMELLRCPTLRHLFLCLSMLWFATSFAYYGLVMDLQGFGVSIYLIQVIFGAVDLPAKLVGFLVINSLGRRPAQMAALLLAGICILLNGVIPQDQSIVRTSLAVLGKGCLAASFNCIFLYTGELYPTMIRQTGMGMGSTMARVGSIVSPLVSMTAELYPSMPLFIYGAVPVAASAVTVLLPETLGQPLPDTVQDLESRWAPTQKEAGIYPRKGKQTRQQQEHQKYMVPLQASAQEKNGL
Assay: Baricitinib substrate study in OAT1-transfected HEK-PEAK cells
Assay type: in vitro ADME

OAT1 substrate: not a substrate
SMILES: CCS(=O)(=O)N1CC(CC#N)(n2cc(-c3ncnc4[nH]ccc34)cn2)C1 [Baricitinib]
